Measured values taken from patent publication US20160193216A1 (Nimbus Iris, Inc., priority 2012, published 2016).

biological target: T1, IRAK4 (Homo sapiens, UniProt Q9NWZ3); assay: IRAK-4 activity inhibition assay (Caliper); format: biochemical; details: 37 μM ATP, 3.5 nM IRAK4
T1 sequence (Q9NWZ3 1-460): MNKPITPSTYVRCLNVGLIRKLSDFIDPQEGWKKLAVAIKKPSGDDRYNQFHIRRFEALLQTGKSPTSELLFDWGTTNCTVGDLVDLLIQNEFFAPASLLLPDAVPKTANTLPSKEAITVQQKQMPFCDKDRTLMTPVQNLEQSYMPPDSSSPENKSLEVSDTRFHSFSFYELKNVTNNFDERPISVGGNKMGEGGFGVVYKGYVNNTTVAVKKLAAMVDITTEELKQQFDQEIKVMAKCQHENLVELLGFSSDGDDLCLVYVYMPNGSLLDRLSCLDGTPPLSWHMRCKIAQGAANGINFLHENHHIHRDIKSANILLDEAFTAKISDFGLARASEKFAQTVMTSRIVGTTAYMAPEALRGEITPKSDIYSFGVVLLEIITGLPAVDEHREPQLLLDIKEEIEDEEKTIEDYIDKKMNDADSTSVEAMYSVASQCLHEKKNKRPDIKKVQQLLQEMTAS
Experimental: A 1× kinase base buffer was prepared from 50 mM HEPES, pH 7.5 and 0.0015% Brij-35. A stop buffer was prepared from 100 mM HEPES, pH 7.5, 0.015% Brij-35, 0.2% Coating Reagent #3, and 50 mM EDTA.
Test compound was diluted to 50× of the final desired highest inhibitor concentration in reaction by 100% DMSO. 100 μl of this compound dilution was transferred to a well in a 96-well plate.
Test compound was serially diluted by transferring 30 μl to 60 μl of 100% DMSO in the next well and so forth for a total of 10 concentrations. 100 μl of 100% DMSO was added to two empty wells for no compound control and no enzyme control in the same 96-well plate.
A new 96-well plate was marked as intermediate plate. 5 μl of compound serial dilution was transferred from source plate to the corresponding wells of the intermediate plate. 45 μl of 1× kinase base buffer (KB buffer) was added to each well of the intermediate plate. The intermediate plate was placed for 10 min on a shaker.
5 μl of each well was transferred from the 96-well intermediate plate to a 384-well plate in duplicates. […] A2 of the 96-well plate is transferred to A3 and A4 of the 384-well plate, and so on.
IRAK4 and DTT in 1× kinase base buffer was added.
Assay plate already contained 5 μl of compound in 10% DMSO. Added 10 μl of 2.5× enzyme solution to each well of the 384-well assay plate, except no enzyme control wells. […] Added 10 μl of 1× kinase base buffer to no enzyme control wells in the assay plate. Incubated at room temperature for 10 min.
Added 10 μl of 2.5× peptide solution to each well of the 384-well assay plate. […] Incubated at 28° C. for 40 minutes. Added 25 μl of stop buffer to stop reaction. Collected data on Caliper.
Copied conversion % data from Caliper program. Converted conversion % values to percent inhibition values. Percent inhibition=(max−conversion %)/(max−min)*100, where “max” means the conversion % of DMSO control and “min” means the conversion % of no enzyme control.
The compound numbers correspond to the compound numbers in Table 1. […] “NA” stands for “not assayed.”

IC50 [µM]	Compound
< 5	CN(C)[C@H]1CC[C@H](Oc2ncnc3sc4c(c23)[C@@H](COCC(N)=O)CC4)CC1 [Compound I-76, 2-[[(3S)-12-[[4-(dimethylamino)cyclohexyl]oxy]-7-thia-9,11-diazatricyclo[6.4.0.0[2,6]]dodeca-1(8),2(6),9,11-tetraen-3-yl]methoxy]acetamide]
< 5	CCNC(=O)CC1CCc2sc3ncnc(O[C@H]4CC[C@H](N(C)C)CC4)c3c21 (stereo in doubt) [Compound I-35, 2-[(3S)-12-[[4-(dimethylamino)cyclohexyl]oxy]-7-thia-9,11-diazatricyclo[6.4.0.0[2,6]]dodeca-1(12),2(6),8,10-tetraen-3-yl]-N-ethylacetamide]
5 to 20	CCS(=O)(=O)N1CCc2sc3ncnc(N[C@H]4CC[C@H](N5CCOCC5)CC4)c3c2C1 [Compound I-181, 12-(ethanesulfonyl)-N-[4-(morpholin-4-yl)cyclohexyl]-8-thia-4,6, 12-triazatricyclo[7.4.0.0[2,7]]trideca-1(9),2(7),3,5-tetraen-3-amine]
> 50	CCNC(=O)C[C@@H]1CCc2sc3ncnc(O[C@H]4CC[C@H](N(C)C)CC4)c3c21 [Compound I-36, 2-[(3S)-12-[[4-(dimethylamino)cyclohexyl]oxy]-7-thia-9,11-diazatricyclo[6.4.0.0[2,6]]dodeca-1(12),2(6),8,10-tetraen-3-yl]-N-ethylacetamide]
< 5	NC(=O)[C@H]1CCc2sc3ncnc(O[C@H]4CC[C@H](N5CCC(F)(F)CC5)CC4)c3c2C1 [Compound I-236, (12S)-3-[[4-(4,4-difluoropiperidin-1-yl)cyclohexyl]oxy]-8-thia-4,6-diazatricyclo[7.4.0.0[2,7]]trideca-1(9),2(7),3,5-tetraene-12-carboxamide]
5 to 20	CN(C)[C@H]1CC[C@H](Oc2ncnc3sc4c(c23)CN(C(=O)CCO)CC4)CC1 [Compound I-195, 1-(3-[[4-(dimethylamino)cyclohexyl]oxy]-8-thia-4,6, 12-triazatricyclo[7.4.0.0[2,7]]trideca-1(9),2,4,6-tetraen-12-yl)-3-hydroxypropan-1-one]
5 to 20	CCOCCC1CCc2sc3ncnc(O[C@H]4CC[C@H](N(C)C)CC4)c3c21 (stereo partly drawn) [Compound I-31, 4-[[3-(2-ethoxyethyl)-7-thia-9,11-diazatricyclo[6.4.0.0[2,6]]dodeca-1(8),2(6),9,11-tetraen-12-yl]oxy]-N,N-dimethylcyclohexan-1-amine]
< 5	CCSCC1CCc2sc3ncnc(O[C@H]4CC[C@H](N(C)C)CC4)c3c21 (stereo partly drawn) [Compound I-39, 4-([3-[(ethylsulfanyl)methyl]-7-thia-9,11-diazatricyclo[6.4.0.0[2,6]]dodeca-1(12),2(6),8,10-tetraen-12-yl]oxy)-N,N-dimethylcyclohexan-1-amine]
< 5	CN(C)[C@H]1CC[C@H](Oc2ncnc3sc4c(c23)[C@@H](C[C@@H](O)C(N)=O)CC4)CC1 [Compound I-75, (2R)-3-[(3R)-12-[[4-(dimethylamino)cyclohexyl]oxy]-7-thia-9,11-diazatricyclo[6.4.0.0̂[2,6]]dodeca-1(8),2(6),9,11-tetraen-3-yl]-2-hydroxypropanamide]
5 to 20	CC[C@H](O)C[C@H]1CCc2sc3ncnc(O[C@H]4CC[C@](CC)(N(C)C)CC4)c3c21 [Compound I-104, (2S)-1-[(3R)-12-[[4-(dimethylamino)-4-ethylcyclohexyl]oxy]-7-thia-9,11-diazatricyclo[6.4.0.0[2,6]]dodeca-1(8),2(6),9,11-tetraen-3-yl]butan-2-ol]
< 5	CCCOC(=O)N1CCc2sc3ncnc(O[C@H]4CC[C@H](N(C)C)CC4)c3c2C1 [Compound I-184, propyl 3-[[4-(dimethylamino)cyclohexyl]oxy]-8-thia-4,6, 12-triazatricyclo[7.4.0.0[2,7]]trideca-1(9),2(7),3,5-tetraene-12-carboxylate]
< 5	c1nc(O[C@H]2CC[C@H](N3CCOCC3)CC2)c2c3c(sc2n1)CNC3 [Compound I-192, 12-[[4-(morpholin-4-yl)cyclohexyl]oxy]-7-thia-4,9, 11-triazatricyclo[6.4.0.0[2,6]]dodeca-1(12),2(6),8, 10-tetraene]
< 5	NC(=O)C[C@H]1CCc2sc3ncnc(O[C@H]4CC[C@@H](N5CCNC(=O)C5)CC4)c3c21 [Compound I-157, 2-((R)-4-(((1s,4S)-4-(3-oxopiperazin-1-yl)cyclohexyl)oxy)-6,7-dihydro-5H-cyclopenta[4,5]thieno[2,3-d]pyrimidin-5-yl)acetamide]
< 5	NC(=O)C[C@H]1CCc2sc3ncnc(O[C@H]4CC[C@H](N5CC6(COC6)C5)CC4)c3c21 [Compound I-152, 2-[(3R)-12-[(4-[2-oxa-6-azaspiro[3.3]heptan-6-yl]cyclohexyl)oxy]-7-thia-9,11-diazatricyclo[6.4.0.0[2,6]]dodeca-1(8),2(6),9,11-tetraen-3-yl]acetamide]
< 5	CN(C)[C@H]1CC[C@H](Oc2ncnc3sc4c(c23)[C@@H](CC(O)c2ncco2)CC4)CC1 (mixture of isomers) [Compound I-60, 2-[(3R)-12-[[4-(dimethylamino)cyclohexyl]oxy]-7-thia-9,11-diazatricyclo[6.4.0.0[2,6]]dodeca-1(8),2(6),9,11-tetraen-3-yl]-1-(1,3-oxazol-2-yl)ethan-1-ol]
< 5	CCCOC(=O)N1CCc2sc3ncnc(N[C@H]4CC[C@H](N5CCOCC5)CC4)c3c2C1 [Compound I-186, propyl 3-[[4-(morpholin-4-yl)cyclohexyl]amino]-8-thia-4,6, 12-triazatricyclo[7.4.0.0[2,7]]trideca-1(9),2(7),3,5-tetraene-12-carboxylate]
< 5	CC[C@]1(N(C)C)CC[C@H](Oc2ncnc3sc4c(c23)[C@@H](C[C@@H](C)O)CC4)CC1 [Compound I-102, (2R)-1-[(3R)-12-[[4-(dimethylamino)-4-ethylcyclohexyl]oxy]-7-thia-9,11-diazatricyclo[6.4.0.0[2,6]]dodeca-1(12),2(6),8,10-tetraen-3-yl]propan-2-ol]
< 5	CC[C@H](O)C[C@H]1CCc2sc3ncnc(O[C@H]4CC[C@H](N5CCOCC5)CC4)c3c21 [Compound I-64, (S)-1-((R)-4-(((1r,4R)-4-morpholinocyclohexyl)oxy)-6,7-dihydro-5H-cyclopenta[4,5]thieno[2,3-d]pyrimidin-5-yl)butan-2-ol]
5 to 20	CC(=O)N1CCc2sc3ncnc(N[C@H]4CC[C@H](N(C)C)CC4)c3c2C1 [Compound I-173, 1-(3-[[4-(dimethylamino)cyclohexyl]amino]-8-thia-4,6,12-triazatricyclo[7.4.0.0-[2,7]]trideca-1(9),2(7),5-trien-12-yl)ethan-1-one]
< 5	CN(C)[C@H]1CC[C@H](Nc2ncnc3sc4c(c23)C(C(=O)NCCO)CC4)CC1 (stereo partly drawn) [Compound I-17, 12-[[4-(dimethylamino)cyclohexyl]amino]-N-(2-hydroxyethyl)-7-thia-9,11-diazatricyclo[6.4.0.0̂[2,6]]dodeca-1(12),2(6),8,10-tetraene-3-carboxamide]
< 5	CN(C)[C@H]1CC[C@H](Oc2ncnc3sc4c(c23)CC(CC(N)=O)OC4)CC1 (stereo partly drawn) [Compound I-221, 2-(3-[[4-(dimethylamino)cyclohexyl]oxy]-11-oxa-8-thia-4,6-diazatricyclo[7.4.0.0[2,7]]trideca-1(9),2(7),3,5-tetraen-12-yl)acetamide]
20 to 50	CCOC(=O)C1CCc2sc3ncnc(O[C@H]4CC[C@H](N(C)C)CC4)c3c21 (stereo partly drawn) [Compound I-4]
> 50	CN(C)[C@H]1CC[C@H](Nc2ncnc3sc4c(c23)C(CC(=O)N2CCCC2)CC4)CC1 (stereo partly drawn) [Compound I-14, 2-(4-(((1r,4r)-4-(dimethylamino)cyclohexyl)amino)-6,7-dihydro-5H-cyclopenta[4,5]thieno[2,3-d]pyrimidin-5-yl)-1-(pyrrolidin-1-yl)ethanone]
5 to 20	C=C[C@H](O)C[C@H]1CCc2sc3ncnc(O[C@H]4CC[C@](CC)(N(C)C)CC4)c3c21 [Compound I-124, (R)-1-((R)-4-(((1r,4R)-4-(dimethylamino)-4-ethylcyclohexyl)oxy)-6,7-dihydro-5H-cyclopenta[4,5]thieno[2,3-d]pyrimidin-5-yl)but-3-en-2-ol]
